Structures are written as SMILES.

Sequence of HEK293 cells with stable expression of the GRIN1 gene and tetracycline-inducible expression of the GRIN2B gene (NMDA receptor, NR2B) (Q13224 27-1484, other chains not shown): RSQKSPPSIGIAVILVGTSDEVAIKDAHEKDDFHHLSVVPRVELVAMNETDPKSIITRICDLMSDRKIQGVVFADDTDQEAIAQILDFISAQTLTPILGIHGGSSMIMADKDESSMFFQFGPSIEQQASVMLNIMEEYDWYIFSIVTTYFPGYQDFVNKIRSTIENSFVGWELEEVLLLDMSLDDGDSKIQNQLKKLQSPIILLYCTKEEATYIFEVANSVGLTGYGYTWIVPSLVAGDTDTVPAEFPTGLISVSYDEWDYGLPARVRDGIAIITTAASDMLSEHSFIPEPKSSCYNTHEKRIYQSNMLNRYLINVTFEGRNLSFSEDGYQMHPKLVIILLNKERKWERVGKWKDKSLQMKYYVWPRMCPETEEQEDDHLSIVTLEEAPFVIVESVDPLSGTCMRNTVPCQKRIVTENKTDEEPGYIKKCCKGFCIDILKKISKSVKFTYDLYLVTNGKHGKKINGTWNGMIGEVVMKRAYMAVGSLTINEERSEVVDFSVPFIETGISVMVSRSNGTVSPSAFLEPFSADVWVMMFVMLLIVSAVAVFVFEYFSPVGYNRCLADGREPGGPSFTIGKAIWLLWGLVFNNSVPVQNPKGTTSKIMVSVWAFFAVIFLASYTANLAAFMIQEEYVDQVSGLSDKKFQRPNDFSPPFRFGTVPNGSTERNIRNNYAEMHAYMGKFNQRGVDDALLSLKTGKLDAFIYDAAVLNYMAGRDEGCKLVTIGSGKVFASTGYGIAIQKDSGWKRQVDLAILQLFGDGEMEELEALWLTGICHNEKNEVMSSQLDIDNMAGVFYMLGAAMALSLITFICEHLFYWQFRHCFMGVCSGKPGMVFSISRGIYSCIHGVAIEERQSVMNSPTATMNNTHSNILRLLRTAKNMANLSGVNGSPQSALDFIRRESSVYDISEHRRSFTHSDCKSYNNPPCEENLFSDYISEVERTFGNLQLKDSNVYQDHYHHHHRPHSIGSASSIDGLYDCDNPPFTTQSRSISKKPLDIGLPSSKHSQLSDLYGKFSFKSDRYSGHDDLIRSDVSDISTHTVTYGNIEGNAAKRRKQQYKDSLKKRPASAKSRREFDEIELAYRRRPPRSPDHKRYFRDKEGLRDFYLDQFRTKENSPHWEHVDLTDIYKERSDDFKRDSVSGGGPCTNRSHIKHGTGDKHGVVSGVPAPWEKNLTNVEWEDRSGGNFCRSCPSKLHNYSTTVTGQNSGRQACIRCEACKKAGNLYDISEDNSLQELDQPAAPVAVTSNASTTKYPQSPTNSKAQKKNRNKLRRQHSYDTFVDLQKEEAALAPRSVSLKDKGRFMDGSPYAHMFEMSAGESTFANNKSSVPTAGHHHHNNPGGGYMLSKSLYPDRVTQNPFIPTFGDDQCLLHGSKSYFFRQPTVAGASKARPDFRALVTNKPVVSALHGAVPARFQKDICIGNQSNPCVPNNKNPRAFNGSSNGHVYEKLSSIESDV

This test addresses HEK293 cells with stable expression of the GRIN1 gene and tetracycline-inducible expression of the GRIN2B gene (NMDA receptor, NR2B) (Homo sapiens, UniProt Q13224). The experiment in a line: Fluo-8 Ca2+ flux assay: reversal of Ro 25-6981-mediated suppression of the Ca2+ response to co-agonist (glutamate/glycine). Also: test concentration or dose not given here. It counts as cell-based. To be noted: reversal of the Ro 25-6981 suppression of the Ca2+ response to co-agonist (glutamate/glycine).
For `O=C(Cn1ncc2scc(-c3ccc(F)c(Cl)c3)c2c1=O)N1CC(F)(F)C1` [Example 341, 3-(3-chloro-4-fluorophenyl)-5-(2-(3,3-difluoroazetidin-1-yl)-2-oxoethyl)thieno[2,3-d]pyridazin-4(5H)-one], the “Response Recovered (%)” value came out at 8%.
In the case of `O=C(Cn1ncc2scc(-c3ccc(Cl)c(F)c3)c2c1=O)N1CCC(F)C1` (centres unmarked) [Example 342, 3-(4-chloro-3-fluorophenyl)-5-(2-(3-fluoropyrrolidin-1-yl)-2-oxoethyl)thieno[2,3-d]pyridazin-4(5H)-one] it was 4%; in that of `O=C(Cn1ncc2scc(-c3ccc(F)c(Cl)c3)c2c1=O)N1CCC(F)C1` (centres unmarked) [Example 343, 3-(3-chloro-4-fluorophenyl)-5-(2-(3-fluoropyrrolidin-1-yl)-2-oxoethyl)theino[2,3-d]pyridazin-4(5H)-one], 15%.
For `O=C(Cn1ncc2scc(-c3ccc(Cl)c(C(F)(F)F)c3)c2c1=O)N1CCC(F)C1` (centres unmarked) [Example 344, 3-(4-chloro-3-(trifluoromethyl)phenyl)-5-(2-(3-fluoropyrrolidin-1-yl)-2-oxoethyl)thieno[2,3-d]pyridazin-4(5H)-one] the value was −1%.
For `O=C(Cn1cnc2csc(-c3ccc(Cl)cc3)c2c1=O)N1CCCC1` [Example 345, 5-(4-chlorophenyl)-3-(2-oxo-2-(pyrrolidin-1-yl)ethyl)thieno[3,4-d]pyrimidin-4(3H)-one] the value was 18%; for `O=C(Cn1cnc2csc(-c3ccc(Cl)cc3)c2c1=O)NC1CC1` [Example 346, 2-(5-(4-chlorophenyl)-4-oxothieno[3,4-d]pyrimidin-3(4H)-yl)-N-cyclopropylacetamide], 0%.
As to `O=C(Cn1cnc2csc(-c3ccc(Cl)cc3)c2c1=O)NC1CCC1` [Example 347, 2-(5-(4-chlorophenyl)-4-oxothieno[3,4-d]pyrimidin-3-(4H)-yl)-N-cyclobutylacetamide], the “Response Recovered (%)” value is given as 2%.
For `O=C(Cn1cnc2csc(-c3ccc(Cl)cc3)c2c1=O)N1CC(F)(F)C1` [Example 348, 5-(4-chlorophenyl)-3-(2-(3,3-difluoroazetidin-1-yl)-2-oxoethyl)thieno[3,4-d]pyrimidin-4(3H)-one] the value was 26%; for `O=C(Cn1cnc2csc(-c3ccc(Cl)cc3)c2c1=O)N1CCC1` [Example 349, 3-(2-(azetidin-1-yl)-2-oxoethyl)-5-(4-chlorophenyl)thieno[3,4-d]pyrimidin-4(3H)-one], 3%; for `O=C(Cn1cnc2csc(-c3ccc(Cl)cc3)c2c1=O)N1CCCCC1` [Example 350, 5-(4-chlorophenyl)-3-(2-oxo-2-(piperidin-1-yl)ethyl)thieno[3,4-d]pyrimidin-4(3H)-one], 0%.
For `COC1CN(C(=O)Cn2cnc3csc(-c4ccc(Cl)cc4)c3c2=O)C1` [Example 351, 5-(4-chlorophenyl)-3-(2-(3-methoxyazetidin-1-yl)-2-oxoethyl)thieno[3,4-d]pyrimidin-4(3H)-one] the value was 1%.
In the case of `O=C(Cn1cnc2csc(-c3ccc(Cl)cc3)c2c1=O)N1CCC(O)C1` (centres unmarked) [Example 352, 5-(4-chlorophenyl)-3-(2-(3-hydroxypyrrolidin-1-yl)-2-oxoethyl)thieno[3,4-d]pyrimidin-4(3H)-one] it was 7%; in that of `O=C(Cn1cnc2csc(-c3ccc(Cl)cc3)c2c1=O)N1CCC(F)(F)CC1` [Example 353, 5-(4-chlorophenyl)-3-(2-(4,4-difluoropiperidin-1-yl)-2-oxoethyl)thieno[3,4-d]pyrimidin-4(3H)one], 1%.
For `O=C(Cn1cnc2csc(-c3ccc(Cl)cc3)c2c1=O)N1CCOCC1` [Example 354, 5-(4-chlorophenyl)-3-(2-morpholino-2-oxoethyl)thieno[3,4-d]pyrimidin-4(3H)-one], the “Response Recovered (%)” value was determined as 1%.
In the case of `O=C(Cn1cnc2csc(-c3ccc(Cl)cc3)c2c1=O)N1CCCC1C(F)(F)F` (centres unmarked) [Example 355, 5-(4-chlorophenyl)-3-(2-oxo-2-(2-(trifluoromethyl)pyrrolidin-1-yl)ethyl)thieno[3,4-d]pyrimidin-4(3H)-one], the “Response Recovered (%)” value is recorded as 10%.
In the case of `O=C(Cn1cnc2csc(-c3ccc(C(F)(F)F)cc3)c2c1=O)N1CCCC1` [Example 356, 3-(2-oxo-2-(pyrrolidin-1-yl)ethyl)-5-(4-(trifluoromethyl)phenyl)thieno[3,4-d]pyrimidin-4(3H)-one] it was 11%; in that of `O=C(Cn1cnc2csc(-c3ccc(C(F)(F)F)cc3)c2c1=O)N1CCCC1C(F)(F)F` (centres unmarked) [Example 357, 3-(2-oxo-2-(2-(trifluoromethyl)pyrrolidin-1-yl)ethyl)-5-(4-(trifluoromethyl)phenyl)thieno[3,4-d]pyrimidin-4(3H)-one], 2%; in that of `O=C(Cn1cnc2csc(-c3ccc(C(F)(F)F)cc3)c2c1=O)N1CC(F)(F)C1` [Example 358, 3-(2-(3,3-difluoroazetidin-1-yl)-2-oxoethyl)-5-(4-(trifluoromethyl)phenyl)thieno[3,4-d]pyrimidin-4(3H)-one], 12%.
For `O=C(Cn1cnc2csc(-c3ccc(F)c(Cl)c3)c2c1=O)N1CCCC1` [Example 359, 5-(3-chloro-4-fluorophenyl)-3-(2-oxo-2-(pyrrolidin-1-yl)ethyl)thieno[3,4-d]pyrimidin-4(3H)-one] the value was 35%; for `O=C(Cn1cnc2csc(-c3ccc(F)c(Cl)c3)c2c1=O)N1CC(F)(F)C1` [Example 360, 5-(3-chloro-4-fluorophenyl)-3-(2-(3,3-difluoroazetidin-1-yl)-2-oxoethyl)thieno[3,4-d]pyrimidin-4(3H)-one], 39%.
For `O=C(Cn1cnc2csc(-c3ccc(Cl)c(C(F)(F)F)c3)c2c1=O)N1CC(F)(F)C1` [Example 362, 5-(4-chloro-3-(trifluoromethyl)phenyl)-3-(2-(3,3-difluoroazetidin-1-yl)-2-oxoethyl)thieno[3,4-d]pyrimidin-4(3H)-one] the value was 39%; for `O=C(Cn1cnc2csc(-c3ccc(Cl)c(F)c3)c2c1=O)N1CC(F)(F)C1` [Example 363, 5-(4-chloro-3-fluorophenyl)-3-(2-(3,3-difluoroazetidin-1-yl)-2-oxoethyl)thieno[3,4-d]pyrimidin-4(3H)-one], 16%; for `O=C(Cn1cnc2csc(-c3ccc(Cl)c(F)c3)c2c1=O)N1CCC(F)C1` (centres unmarked) [Example 364, 5-(4-chloro-3-fluorophenyl)-3-(2-(3-fluoropyrrolidin-1-yl)-2-oxoethyl)thieno[3,4-d]pyrimidin-4(3H)-one], 35%.
Turning to `O=C(Cn1cnc2csc(-c3ccc(Cl)c(F)c3)c2c1=O)N1CCC(C(F)(F)F)C1` (centres unmarked) [Example 365, 5-(4-chloro-3-fluorophenyl)-3-(2-oxo-2-(3-(trifluoromethyl)pyrrolidin-1-yl)ethyl)thieno[3,4-d]pyrimidin-4(3H)-one], the “Response Recovered (%)” value is 4%.
With `O=C(Cn1cnc2csc(-c3ccc(Cl)c(C(F)(F)F)c3)c2c1=O)N1CCCC1` [Example 366, 5-(4-chloro-3-(trifluoromethyl)phenyl)-3-(2-oxo-2-(pyrrolidin-1-yl)ethyl)thieno[3,4-d]pyrimidin-4(3H)-one], the “Response Recovered (%)” value is reported as 34%.
For the compound `O=C(Cn1cnc2csc(-c3ccc(Cl)c(F)c3)c2c1=O)N1CCCC1` [Example 367, 5-(4-chloro-3-fluorophenyl)-3-(2-oxo-2-(pyrrolidin-1-yl)ethyl)thieno[3,4-d]pyrimidin-4(3H)-one], the “Response Recovered (%)” value was 15%.
In the case of `O=C(Cn1cnc2c(Br)sc(-c3ccc(Cl)c(F)c3)c2c1=O)N1CCCC1` [Example 368, 7-bromo-5-(4-chloro-3-fluorophenyl)-3-(2-oxo-2-(pyrrolidin-1-yl)ethyl)thieno[3,4-d]pyrimidin-4(3H)-one] it was 41%.
Turning to `Cc1sc(-c2ccc(Cl)c(F)c2)c2c(=O)n(CC(=O)N3CCCC3)cnc12` [Example 369, 5-(4-chloro-3-fluorophenyl)-7-methyl-3-(2-oxo-2-(pyrrolidin-1-yl)ethyl)thieno[3,4-d]pyrimidin-4(3H)-one], the “Response Recovered (%)” value turned out to be 33%.
Take `O=C(Cn1cnc2ccn(-c3ccc(Cl)cc3)c2c1=O)N1CCC1` [Example 370, 3-(2-(azetidin-1-yl)-2-oxoethyl)-5-(4-chlorophenyl)-3H-pyrrolo[3,2-d]pyrimidin-4(5H)-one]: the “Response Recovered (%)” value stood at 4%.
Turning to `O=C(Cn1cnc2ccn(-c3ccc(Cl)cc3)c2c1=O)N1CCOCC1` [Example 371, 5-(4-chlorophenyl)-3-(2-morpholino-2-oxoethyl)-3H-pyrrolo[3,2-d]pyrimidin-4(5H)-one], the “Response Recovered (%)” value is on record as 1%.
For `COC1CN(C(=O)Cn2cnc3ccn(-c4ccc(Cl)cc4)c3c2=O)C1` [Example 372, 5-(4-chlorophenyl)-3-(2-(3-methoxyazetidin-1-yl)-2-oxoethyl)-3H-pyrrolo[3,2-d]pyrimidin-4(5H)-one] the value was 1%; for `O=C(Cn1cnc2ccn(-c3ccc(Cl)cc3)c2c1=O)N1CCC(F)(F)CC1` [Example 373, 5-(4-chlorophenyl)-3-(2-(4,4-difluoropiperidin-1-yl)-2-oxoethyl)-3H-pyrrolo[3,2-d]pyrimidin-4(5H)-one], 3%.
For `O=C(Cn1cnc2ccn(-c3ccc(Cl)cc3)c2c1=O)N1CC(F)(F)C1` [Example 374, 5-(4-chlorophenyl)-3-(2-(3,3-difluoroazetidin-1-yl)-2-oxoethyl)-3H-pyrrolo[3,2-d]pyrimidin-4(5H)-one] the value was 4%.
In the case of `O=C(Cn1cnc2ccn(-c3ccc(Cl)cc3)c2c1=O)NC1CC1` [Example 375, 2-(5-(4-chlorophenyl)-4-oxo-4,5-dihydro-3H-pyrrolo[3,2-d]pyrimidin-3-yl)-N-cyclopropylacetamide] it was 0%; in that of `O=C(Cn1cnc2ccn(-c3ccc(Cl)cc3)c2c1=O)N1CCCC1` [Example 376, 5-(4-chlorophenyl)-3-(2-oxo-2-(pyrrolidin-1-yl)ethyl)-3H-pyrrolo[3,2-d]pyrimidin-4(5H)-one], 3%.

The record behind these values is patent publication US12162890B2 (Novartis AG, priority 2015, dated 2024).
